# BindingDB's records for doi:10.3109/14756360903169592 (Ufr Des Sciences Pharmaceutiques Et Ingenierie De La Sante, 2010)
# Biological target: T1, Protein farnesyltransferase subunit beta/geranylgeranyltransferase type-1 subunit alpha (Saccharomyces cerevisiae (strain ATCC 204508 / S288c), UniProt P22007+P29703)
# T1 sequence (P22007 whole entry): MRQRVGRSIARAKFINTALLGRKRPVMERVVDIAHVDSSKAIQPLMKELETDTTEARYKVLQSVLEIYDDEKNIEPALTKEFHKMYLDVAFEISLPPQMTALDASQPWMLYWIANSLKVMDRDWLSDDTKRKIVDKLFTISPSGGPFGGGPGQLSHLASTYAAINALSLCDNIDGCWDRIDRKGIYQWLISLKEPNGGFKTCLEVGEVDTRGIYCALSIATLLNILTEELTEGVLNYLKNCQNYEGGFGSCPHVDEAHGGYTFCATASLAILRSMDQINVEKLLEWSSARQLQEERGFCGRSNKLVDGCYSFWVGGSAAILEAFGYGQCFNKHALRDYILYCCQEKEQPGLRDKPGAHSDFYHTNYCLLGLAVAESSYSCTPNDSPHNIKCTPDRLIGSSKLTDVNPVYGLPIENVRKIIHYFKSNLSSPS
# T1 sequence (P29703 whole entry): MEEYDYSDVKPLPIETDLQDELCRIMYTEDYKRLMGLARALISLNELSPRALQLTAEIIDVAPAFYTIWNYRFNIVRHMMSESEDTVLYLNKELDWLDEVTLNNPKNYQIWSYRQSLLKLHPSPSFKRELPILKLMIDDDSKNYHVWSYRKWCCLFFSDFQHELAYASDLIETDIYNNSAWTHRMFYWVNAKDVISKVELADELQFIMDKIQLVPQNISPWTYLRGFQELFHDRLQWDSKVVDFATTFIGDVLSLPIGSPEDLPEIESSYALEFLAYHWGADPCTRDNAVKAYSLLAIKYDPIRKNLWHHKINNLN
# Assay: Fluorescence-Based PFTase Inhibition Assay
# Conditions: pH 7.5; 30 °C
# Procedure: Assays were realized on 96-well plates, prepared with Biomek NKMC and Biomek 3000 from Beckman Coulter and read on a Wallac Victor fluorimeter from PerkinElmer. Per well, 20 μL of farnesyl pyrophosphate (10 μM) was added to 180 μL of a solution containing 2 μL of varied concentrations of tested compounds (dissolved in methanol) and 178 μL of a solution composed by 0.1 mL of partially purified recombinant yeast FTase (2.2mg/mL) and 7.0 mL of Dansyl-GCVLS peptide (in the following buffer: 5.8 mM DTT, 12 mM MgCl2, 12 μM ZnCl2, and 0.09% (w/v) CHAPS, 53 mM Tris/HCl, pH 7.5). Then the fluorescence development was recorded for 15 min (0.7 s per well, 20 repeats) at 30°C with an excitation filter at 340 nm and an emission filter at 486 nm.
row,Compound,IC50 [µM]
1,"CC(=O)/C=C/C1=CC[C@H]2[C@H](C[C@@H]1C)OC(=O)[C@@H]2C [11β,13-Dihydroxanthatin (10)]",210
2,"C=C1C(=O)O[C@H]2C[C@H](C)c3cc(C(C)=O)oc3C[C@H]12 [3,5-Oxyxanthatin (7)]",> 1000
3,"CC(O)/C=C/C1=CC[C@H]2[C@H](C[C@@H]1C)OC(=O)[C@@H]2C (stereo partly drawn) [4,11β,13-Tetrahydroxanthatin (8)]",> 1000
4,"CC(=O)OC(C)/C=C/C1=CC[C@H]2[C@H](C[C@@H]1C)OC(=O)[C@@H]2C (stereo partly drawn) [2,3-(E)-Dehydro-4-epi-isoxanthanol (9)]",900
5,"C=C1C(=O)O[C@@H]2C[C@H](C)[C@]3(/C=C/C(C)=O)O[C@@H]3C[C@H]12 [8-Epi-xanthatin-1,5α-epoxide]",58
6,C/C=C(/C)C(=O)O[C@H]1[C@H]2[C@H](C)C(=O)O[C@@H]2C[C@@H](C)[C@@H]2C=CC(=O)[C@]21C [6-O-angeloylprenolin],18.8
7,"CC(=O)/C=C/[C@]12O[C@H]1C[C@H]1[C@H](C[C@@H]2C)OC(=O)[C@@H]1C [11β,13-Dihydroxanthatin-1,5β-epoxide (12)]",66
8,"CC(=O)/C=C/[C@@]12O[C@@H]1C[C@H]1[C@H](C[C@@H]2C)OC(=O)[C@@H]1C [11β,13-Dihydroxanthatin-1,5α-epoxide (11)]",90
9,"CC(=O)CCC1=CC[C@@H]2C(C)C(=O)O[C@H]2C[C@@H]1C (stereo partly specified) [11,13-Dihydroxanthinosin (13)]",240
10,"CC(O)CCC1=CC[C@@H]2C(C)C(=O)O[C@H]2C[C@@H]1C (stereo partly specified) [4,11,13-Tetrahydroxanthinosin (14)]",> 1000
11,C=C1C(=O)O[C@@H]2C[C@H](C)C(/C=C/C(C)=O)=CC[C@H]12 [8-Epi-xanthatin],64
12,"CC(=O)OC(CC(C)O)C1=CC[C@H]2[C@H](C[C@@H]1C)OC(=O)[C@@H]2C (stereo partly drawn) [11β,13-Dihydro-4-epi-isoxanthanol (16)]",633

# More lines, now with the values ahead:
row,IC50 [µM],Compound
1,> 1000,"C=C1C(=O)O[C@H]2C[C@H](C)C(C(CC(C)O)OC(C)=O)=CC[C@H]12 (stereo partly drawn) [α-Methylene-γ-lactone, 3]"
2,40,C=C1C(=O)O[C@H]2C[C@H](C)C(C(CC(C)OC(C)=O)OC(C)=O)=CC[C@H]12 (stereo partly drawn) [Acetyl-4-epi-isoxanthanol (6)]
3,100,C=C1C(=O)O[C@H]2C[C@H](C)C(/C=C/C(C)=O)=CC[C@H]12 [Xanthatin (2)]
4,100,"C=C1C(=O)O[C@H]2C[C@H](C)[C@]3(/C=C/C(C)=O)O[C@@H]3C[C@H]12 [Xanthatin-1,5α-epoxide (5)]"
5,500,"C=C1C(=O)O[C@H]2C[C@H](C)[C@@]3(/C=C/C(C)=O)O[C@H]3C[C@H]12 [Xanthatin-1,5β-epoxide (4)]"
6,0.95,C=C1C(=O)O[C@@H]2C3C4(C=C[C@@]3(C)C3(C4)C(=O)O[C@@H]4[C@H]5C(C)=CC(=O)[C@H]5[C@@H](C)C[C@H](OC(=O)/C(C)=C\C)[C@H]43)[C@](C)(O)CC[C@@H]12 (stereo partly specified) [Arteminolide C']
7,40,"CC(=O)OC(C)CC(OC(C)=O)C1=CC[C@H]2[C@H](C[C@@H]1C)OC(=O)[C@@H]2C (stereo partly drawn) [Acetyl-11β,13-dihydro-4-epi-isoxanthanol (15)]"
8,1,C/C=C(/C)C(=O)O[C@H]1C[C@H](C)[C@@H]2C(=O)C=C(C)[C@@H]2[C@H]2OC(=O)C3(CC45C=C[C@]3(C)C4[C@H]3OC(=O)C(C)[C@@H]3CC[C@@]5(C)O)[C@@H]21 (stereo partly specified) [Arteminolide C]
9,150,"C=C1C(=O)O[C@H]2C[C@H](C)C(C(CC(C)=O)OC(C)=O)=CC[C@H]12 (stereo partly drawn) [α-Methylene-γ-lactone, 1]"
